Source: US12023319B2, “Carboxylic acid aromatic amides” (priority 2016, dated 2024)

What was measured:
[1] = target: T1, human Bradykinin B1 receptor (Homo sapiens, UniProt P46663); experiment: Calcium flux assay (FLIPR), CHO-K1 cells expressing human Bradykinin B1 receptor, absence of 0.1% BSA (hB1 free IC50); assay type: cell-based; conditions: absence of 0.1% BSA in assay buffer
T1 construct: host or cells: CHO-K1
T1 sequence (P46663 1-353): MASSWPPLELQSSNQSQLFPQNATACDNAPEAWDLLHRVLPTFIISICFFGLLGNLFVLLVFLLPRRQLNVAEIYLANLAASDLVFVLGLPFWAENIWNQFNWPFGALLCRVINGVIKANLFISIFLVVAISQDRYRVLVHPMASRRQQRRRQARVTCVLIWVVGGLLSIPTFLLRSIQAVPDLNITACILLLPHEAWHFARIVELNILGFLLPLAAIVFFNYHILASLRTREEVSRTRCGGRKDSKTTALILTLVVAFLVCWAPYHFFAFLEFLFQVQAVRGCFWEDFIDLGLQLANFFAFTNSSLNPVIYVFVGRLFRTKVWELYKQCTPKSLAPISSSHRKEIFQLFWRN
Summary of the method: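 CHO-K1 hB1-D1 cells, dye-loaded, given compounds (8 concentrations, triplicate, 1% DMSO) 30 min at 28° C, then stimulated with selective B1 agonist peptide; Ca2+ fluorescence read at 538 nm on FLIPR. Peak response normalised to DMSO and 20 µM Lys-(Des-Arg-Leu)-Bradykinin full inhibition; IC50 fitted.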

[2] = target: T2, native human Bradykinin B1 receptor (Homo sapiens, UniProt P46663); experiment: Calcium flux assay (FLIPR) with IMR-90 human fibroblasts expressing Bradykinin B1 receptor after IL-1beta induction (hB1 IMR-90); assay type: cell-based; conditions: IMR-90 human fibroblasts after IL-1beta induction, read-out: hB1 IMR90 IC50
T2 construct: which express native human Bradykinin B1 receptor after induction with human IL-1beta; Coriell Institute; host or cells: IMR-90 human foetal lung fibroblasts, induced with human IL-1beta
T2 sequence (P46663 1-353): T1 sequence (P46663 1-353)
Summary of the method: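 IMR-90 foetal lung fibroblasts induced with 0.35 ng/mL IL-1beta for 3 h to express native B1 receptor, then loaded with 2.5 μM Fluo-4/AM plus 2.5 mM probenecid for 2 h at 37 °C. Calcium flux read by FLIPR; compounds at 8 concentrations in triplicate, full inhibition defined by 20 μM Lys-(Des-Arg-Leu)-Bradykinin; IC50 derived.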

Row | IC50 [1] | IC50 [2] | SMILES
1 | 6.5 nM | 72 nM | O=C(O)c1cc(NC(=O)C2(c3ccc(C(F)(F)F)cc3F)CC2)ccc1-c1cc2ccccc2s1 [Example 1, 2-(1-Benzothiophen-2-yl)-5-[({1-[2-fluoro-4-(trifluoromethyl)phenyl]cyclopropyl}carbonyl)amino]benzoic acid]
2 | 24 nM | 44 nM | CCC(F)(F)c1ccc(-c2ccc(NC(=O)C3(c4ccc(C(F)(F)F)cc4F)CC3)cc2C(=O)O)cn1 [Example 2, 2-[6-(1,1-Difluoropropyl)pyridin-3-yl]-5-[({1-[2-fluoro-4-(trifluoromethyl)-phenyl]cyclopropyl}carbonyl)amino]benzoic acid]
3 | 86 nM | 2700 nM | O=C(O)c1cc(NC(=O)C2(c3ccc(OC(F)(F)F)cc3F)CC2)ccc1-c1ccc(C(F)F)nc1 [Example 5, 2-[6-(Difluoromethyl)pyridin-3-yl]-5-[({1-[2-fluoro-4-(trifluoromethoxy)phenyl]cyclopropyl}carbonyl)amino]benzoic acid]
4 | 210 nM | 550 nM | O=C(O)c1cc(NC(=O)C2(c3ccc(C(F)(F)F)cc3F)CC2)ccc1-c1ccc(C(F)(F)F)nc1 [Example 6, 5-[({1-[2-Fluoro-4-(trifluoromethyl)phenyl]cyclopropyl}carbonyl)amino]-2-[6-(trifluoromethyl)pyridin-3-yl]benzoic acid]
5 | 13 nM | 21 nM | O=C(O)c1cc(NC(=O)C2(c3ccc(C(F)(F)F)cc3F)CC2)cc(F)c1-c1ccc(C(F)(F)F)nc1 [Example 29, 3-Fluoro-5-[({1-[2-fluoro-4-(trifluoromethyl)phenyl]cyclopropyl}carbonyl)amino]-2-[6-(trifluoromethyl)pyridin-3-yl]benzoic acid]
6 | 6.3 nM | 4.1 nM | O=C(O)c1cc(NC(=O)C2(c3ccc(C(F)(F)F)cc3F)CC2)cc(F)c1-c1cnn(C2CCC2)c1 [Example 42, 2-(1-Cyclobutyl-1H-pyrazol-4-yl)-3-fluoro-5-[({1-[2-fluoro-4-(trifluoromethyl)phenyl]cyclopropyl}carbonyl)amino]benzoic acid]

Row | SMILES | IC50 [1] | IC50 [2]
7 | O=C(O)c1cc(NC(=O)C2(c3ccc(C(F)(F)F)cc3F)CC2)ccc1-c1cnn(C2CCC2)c1 [Example 3, 2-(1-Cyclobutyl-1H-pyrazol-4-yl)-5-[({1-[2-fluoro-4-(trifluoromethyl)phenyl]cyclopropyl}carbonyl)amino]benzoic acid] | 18 nM | 12 nM
